One data set has as its system OPCs. In words: qRT-PCR of MBP and MOG expression in compound treated OPCs. Particulars: EC90 concentrations, 6 days. It counts as cell-based, rat. The text has this: FIG. 2A-C. […] (A) Western blot analysis of OPCs treated with compounds at EC90 concentrations for 6 days. Total protein was isolated from cell pellets and probed for myelin basic protein (MBP) and myelin oligodendrocyte glycoprotein (MOG) using specific antibodies. (B-C) Quantitative RT-PCR (qRT-PCR) analysis of OPCs treated with compounds at EC90 concentrations for 6 days. Total RNA was isolated from cell pellets and reverse transcribed. MBP and MOG expression was quantified using specific probes and Taqman-based qRT-PCR. Expression was normalized to the internal controls β-actin and GAPDH. Fold change in gene expression over DMSO treated control cells is plotted for MBP (B) and MOG (C).
A general note: Real-time PCR tracks product formation cycle by cycle.

In another data set the test system is PLP induced EAE mice. Particulars: for clinical severity versus vehicle, prophylactic mode: 10 mg/kg i.p. daily from the day of PLP injection; for dose dependence of clinical EAE scores: various doses i.p. (FTY720 1, 0.1, 0.01 mg/kg; interferon-β 10,000, 3000, 1000 U per mouse). How it is done:
(A-E) SJL mice were immunized with proteolipid peptide (PLP) and pertussis toxin and monitored daily with scoring on the standard clinical EAE scale (0-5). Compounds were administered daily for the duration of the study in saline at 10 mg/kg via intra-peritoneal injection (0.1 ml), starting on the day of the appearance of clinical EAE symptoms (day 10). […] Mean clinical EAE score and standard error of mean (SEM) are shown for each study group.
FIG. 25. […] EAE was induced in mice using PLP and pertussis toxin. […] Prophylactic dosing is defined as administration of compound commenced on the day of PLP injection. Error bars indicate standard deviation of the mean within each group of 8 mice.
(A-F) EAE was induced in mice using PLP and pertussis toxin. […] Error bars indicate standard deviation of the mean within each group of 8 mice.
(A-F) EAE was induced in mice by injecting PLP in complete Freund's adjuvant (CFA) and pertussis toxin, and the animals were scored daily for clinical severity of disease on a scale of 0-5. […] Error bars indicate standard deviation of the mean within each group of 8-10 mice.
10 week old SJL mice were immunized with PLP emulsion and pertusis toxin to induce EAE. […] Compounds were administered daily via intraperitoneal injection of 100 ul in sterile saline at 10 mg/kg alone or in combination with mycophenolate motefil in sterile saline at pH 5 at 20 mg/kg. Compound administration was initiated at disease onset (day 10) while mycophenolate motefil administration was initiated on Day 14. The mice were scored daily on a standard EAE scale of 0-5.
This model is most commonly used to evaluate the potential efficacy of immunomodulatory agents, but can also be used to determine the effectiveness of promyelinating agents that function by enhancing OPC differentiation (M. Fernandez et al., Proc Natl Acad Sci U.S.A, 101, 16363 (2004); X. Lee et al., J Neurosci, 27, 220 (2007); reviewed in R. J. Franklin, C. Ffrench-Constant, Nat Rev Neurosci, 9, 839 (2008)). […] We next evaluated efficacy when the drug is dosed therapeutically, by starting daily injections at the first sign of disease onset.
For the treatment of MS, an OPC differentiation inducing drug would most likely be introduced clinically as part of a combination therapy with an immunosuppressive drug. […] The former reduces T-cell proliferation and alters cytokine expression (A. Noronha, A. Toscas, M. A. Jensen, J Neuroimmunol, 46, 145 (1993); A. Noronha, A. Toscas, M. A. Jensen, Ann Neurol, 27, 207 (1990)), while the latter is an S1P agonist that regulates T-cell trafficking (V. Brinkmann et al., J Biol Chem, 277, 21453 (2002); V. Brinkmann et al., Nat Rev Drug Discov, 9, 883 (2010)).

Another data set relates to muscarinic receptor. In words: Carbachol co-treatment in compound induced OPC differentiation (MBP staining). It counts as cell-based, rat. The settings on record: compounds at EC90 (benztropine 2.3 uM), serial dilutions of carbachol, 6 days. How it is done: Following 6 days of treatment, cells were fixed and stained for MBP. Plates were imaged using the OPERA high content screening system and MBP staining was quantified as described. […] OPCs were plated in 384-well plates at 5000 cells per well in media containing basal PDGF-αα. Cells were equilibrated with Ca^2+ sensitive Fluo-3AM® dye in HBSS for 30 min. […] Ca^2+ influx was immediately measured using the FLIPR TETRA® system.
OPCs express mAChRs, predominantly subtypes M1, M3, and M5 (F. Ragheb et al., J Neurochem, 77, 1396 (2001)). […] Activation of M1 and M3 mAChRs is coupled to downstream signal transduction events through phospholipase C, which results in increased intracellular calcium concentrations (F. Ragheb et al., J Neurochem, 77, 1396 (2001)) (FIG. 23C). M2 and M4 mAChR activation inhibits adenylatecyclase, leading to decreased intracellular cAMP levels (C. C. Felder, FASEB J, 9, 619 (1995); M. Lopez-Ilasaca et al., Science, 275, 394 (1997)). […] Acetylcholine is a known regulator of OPC proliferation and, as such, muscarinic receptor subtypes represent a reasonable class of therapeutic targets for the modulation of OPC proliferation and differentiation (F. De Angelis et al., Dev Neurobiol, (2011)).

The structures appear in SMILES notation. Entries after “also recorded” stand apart in the source; their conditions may differ. Read-outs that look alike come from different tables or passages of the source.

On to `CN1[C@@H]2CC[C@H]1C[C@@H](OC(c1ccccc1)c1ccccc1)C2` [benztropine], for which, in the data set with OPCs, the “induction of MBP expression (qRT-PCR) over DMSO” value is given as “two-fold” and the “induction of MOG expression (qRT-PCR) over DMSO” value is “two-fold”. In addition, the “effect on clinical severity scores at 0.1 mg/kg” value in the data set with PLP induced EAE mice (0.1 mg/kg) was “no effect”. Also, in the data set with PLP induced EAE mice, the “clinical severity versus vehicle, prophylactic mode” value was “significantly decreased clinical severity in both acute and relapse phase”; the “dose dependence of clinical EAE scores” value was “Dose dependent activity”. Further, in the data set on PLP induced EAE mice (listed as Benztropine), the “clinical severity versus vehicle, prophylactic mode” value was “dramatically decreased the severity of the acute phase of disease and virtually eliminated the observation of a relapse phase; also recorded: decreased the clinical severity of disease”; the “dose dependence of clinical EAE scores” value is recorded as “dose dependent efficacy”. Also, the “mean maximal clinical EAE score in relapse, day 25” value in the data set with PLP induced EAE mice (SJL mice, scale 0-5, compounds 10 mg/kg i.p. daily from day 10, mycophenolate mofetil 20 mg/kg from day 14, mean ± SEM) is recorded as 0.2±0.2. Besides, in the data set with PLP induced EAE mice (dose response in EAE model), the “most effective dose in decreasing clinical severity scores” value is 12.5 mg/kg. For the same compound, in the data set with PLP induced EAE mice (mouse, in vivo, 10 mg/kg), the general toxicity result is “general toxicity was not observed”. Besides, the “effect of carbachol on compound induced OPC differentiation” value in the data set on muscarinic receptor is listed as “inhibited; also recorded: Potent inhibition; also recorded: antagonizes”. Moreover, in the data set with muscarinic receptor (listed as benzatropine), the “effect of carbachol on compound induced OPC differentiation” value is “dose dependent inhibition”.
`CN1CCN(CCCN2c3ccccc3Sc3ccc(C(F)(F)F)cc32)CC1` [trifluoperazine]: in the data set with OPCs, the “induction of MBP expression (qRT-PCR) over DMSO” value is reported as “two-fold” and the “induction of MOG expression (qRT-PCR) over DMSO” value was “two-fold”. Also, the “recovery time following the acute phase” value in the data set with PLP induced EAE mice (10 mg/kg i.p. daily from day 10) was “modest decrease”. In addition, the “mean maximal clinical EAE score in relapse, day 26” value in the data set with PLP induced EAE mice (SJL mice, scale 0-5, 10 mg/kg i.p. daily from day 10, mean ± SEM) worked out at 0.4±0.4. The “effect of carbachol on compound induced OPC differentiation” value with muscarinic receptor is recorded as “did not inhibit; also recorded: no effect”.

The values above are taken from patent publication US11246873B2, “Directed differentiation of oligodendrocyte precursor cells to a myelinating cell fate” (The Scripps Research Institute, priority 2011, dated 2022).
